Experimental data published in paper PMC5225183, “Fingerprinting of neurotoxic compounds using a mouse embryonic stem cell dual luminescence reporter assay” (Archives of Toxicology, 2016).
Where two headings read alike, the source gives them in different places.

Tests used:
[1] = PBPK reverse modeling of nominal equivalent concentration (NEC), human data
Procedure: To evaluate the human relevance of in vitro concentrations found to be toxic in this study, an in vitro–in vivo comparison of the toxicity data was performed using a physiology-based pharmacokinetic (PBPK) reverse modeling approach. […] The lipid content and albumin concentrations of the test media N2 and BHK medium were calculated on the basis of the available information provided by the suppliers (Fig. S2A). The data on rat plasma have been adopted from (Verwei et al. [2006]). The original references are (Barber et al. [1990]) for albumin and (DeJongh et al. [1997]) for lipids. Human plasma values were taken from (Gulden and Seibert [2003]). The original data on albumin are from (Lindup [1987]) and for lipids from (Patterson et al. [1988]). Total protein concentrations were calculated based on the assumption that the protein molar mass is similar to the one of albumin (66 kDa). Albumin was assumed to represent 60 and 48 % of the total serum proteins (mg/ml) in human and rat (Baker et al. [1979]; Busher [1990]) (Fig. S2A).
(a) Developmental toxicity (DT)—inducing concentrations were extrapolated from the in vivo study reported in the document by the Australian Therapeutic Goods Administration (Australian Therapeutic Goods Administration [2014]). In an embryo-fetal developmental toxicity study in rats, abiraterone acetate induced developmental toxicity when administered at oral doses of 10, 30 or 100 mg/kg/day throughout the period of organogenesis (gestational days 6–17). Findings include embryo-fetal lethality (increased postimplantation loss and decreased number of living fetuses), fetal developmental delay (skeletal effects), and urogenital effects (bilateral ureter dilation) at doses ≥10 mg/kg/day (Australian Therapeutic Goods Administration [2014]). (b) Toxicokinetic parameters of abiraterone in rats were extracted from the available report from the TGA (Australian Therapeutic Goods Administration [2014]). […] The average concentration (Cavg) was calculated from the ratio of AUC and the dose interval (τ) of 24 h. The percentage of plasma protein binding of the drug was reported as being 99.8 %, without relevant species differences occurring (US FDA [2011]). (c) The nominal in vitro concentrations equivalent to the concentration used in vivo were calculated using the value of total protein concentration instead of albumin concentration.
Clinical signs included malrotated forepaws/hindpaws, discoloration of the body surface, impaired coat growth, eye opacity, and eye discharge with absence of pupillary reflex were observed (US FDA [2012]). […] The Cavg was calculated as the ratio of AUC and the dose interval (τ) of 24 h. TF is reported to be extensively bound in plasma, probably mostly to albumin, with an average bound fraction of 99.46 % (Russo et al. [2013]). (c) The nominal in vitro concentrations equivalent to the concentration used in vivo in rats and humans (Cmax and Cavg) were determined assuming only binding to the specific drug-binding proteins (albumin and/or α1-acid glycoprotein) (Fig. S2D).
To compare the effective/toxic concentrations found in our study with relevant in vivo concentrations, we used a reverse pharmacokinetic modeling approach for three exemplary compounds: teriflunomide, geldanamycin, and abiraterone. Firstly, we used a literature data mining approach to identify toxic or clinically relevant plasma concentrations reported in published animal studies (in relation to developmental toxicity or neurotoxicity) or clinical measurements (mostly in relation to drug efficacy). Then those values were used as points-of-departure to calculate the nominal equivalent concentrations (NEC) in both cell culture media used in our study, the BHK and N2 medium. These two media (used to expose the ESCs and the ESC-derived neurons) contained different amounts of protein and lipid and therefore required separate calculations of the NEC. […]

[2] = design: method as in Australian Therapeutic Goods Administration [2014]; details: rats, toxic dose level 10 mg/kg/day; ref Australian Therapeutic Goods Administration [2014]; cited from earlier work
Toxicokinetics in rats = assay type: in vivo; details: plasma, rat
plasma protein = assay: Plasma protein binding (plasma bound fraction); assay type: in vitro ADME; details: assumed, no specific indications found
Procedure: The lipid content and albumin concentrations of the test media N2 and BHK medium were calculated on the basis of the available information provided by the suppliers (Fig. S2A). The data on rat plasma have been adopted from (Verwei et al. [2006]). The original references are (Barber et al. [1990]) for albumin and (DeJongh et al. [1997]) for lipids. Human plasma values were taken from (Gulden and Seibert [2003]). The original data on albumin are from (Lindup [1987]) and for lipids from (Patterson et al. [1988]). Total protein concentrations were calculated based on the assumption that the protein molar mass is similar to the one of albumin (66 kDa). […]
(a) Developmental toxicity (DT)—inducing concentrations were extrapolated from the in vivo study reported in the document by the Australian Therapeutic Goods Administration (Australian Therapeutic Goods Administration [2014]). […] (c) The nominal in vitro concentrations equivalent to the concentration used in vivo were calculated using the value of total protein concentration instead of albumin concentration. […]
(c) The nominal in vitro concentrations equivalent to the concentration used in vivo in rats and humans (Cmax and Cavg) were determined assuming only binding to the specific drug-binding proteins (albumin and/or α1-acid glycoprotein) (Fig. S2D).

[3] = design: method as in Supko et al. [1995]; details: mouse, i.v.; ref Supko et al. [1995]; cited from earlier work
Thy1-GFP transgenic rats = test system: Thy1-GFP transgenic rats; design: method as in Sun et al. [2012]; details: ref Sun et al. [2012]; cited from earlier work
[4] = cited from earlier work
rats = details: Sprague Dawley rats, GD 6 through LD 20; ref US FDA [2012]; cited from earlier work
[5] = test system: neural crest cell migration; design: method as in Zimmer et al. [2012]; details: ref Zimmer et al. [2012]; cited from earlier work
[6] = test system: neuronal precursor cells derived from human embryonic stem cells; design: method as in Waldmann et al. [2014]; details: ref Waldmann et al. [2014]; cited from earlier work
[7] = Sprague Dawley, oral, rats, 0.3 mg/kg, estimated proportional to reported kinetics at 1 mg/kg (US FDA [2012])

For `C[C@]12CC[C@H](O)CC1=CC[C@@H]1[C@@H]2CC[C@]2(C)C(c3cccnc3)=CC[C@@H]12` [Abiraterone], the “Free concentration in vivo” value ([1]; Cavg) was 0.353 pM, the “Total concentration in vivo (ECpl)” value ([1]; Cavg) was 0.14 µM and the “Free concentration in vivo” value ([1]; Cmax) was 1.63 pM. For the same molecule, the “Total concentration in vivo (ECpl)” value ([1]; Cmax) was 0.647 µM, the AUC [2] was 0.034 µg·h/mL and the Cmax [2] was 0.0108 µg/mL.

For `COC1=C2C[C@@H](C)C[C@H](OC)[C@H](O)[C@@H](C)/C=C(\C)[C@H](OC(N)=O)[C@@H](OC)/C=C\C=C(/C)C(=O)NC(=CC1=O)C2=O` [Geldanamycin], the Cmax (Toxicokinetics in rats; Thy1-GFP transgenic, dose of 0.2 mg/kg, calculated from mouse volume of distribution) is given as 1.25 µg/mL, the “fb,pl (plasma bound fraction)” value (plasma protein) is given as 99% and the “initial volume of distribution” value [3] is given as 0.16 L/kg. The “dose affecting nerve recovery / neurodifferentiation” value (Thy1-GFP transgenic rats) was 0.2 mg/kg/day and the aqueous solubility [4] was “poor”.

With `C/C(O)=C(\C#N)C(=O)Nc1ccc(C(F)(F)F)cc1` [Teriflunomide] the “Free concentration in vivo” value ([1]; Cavg) was 280000 pM, the “Total concentration in vivo (ECpl)” value ([1]; Cavg) was 165 µM and the AUC (Toxicokinetics in rats; [7]) was about 33 µg·h/mL. The Cmax (Toxicokinetics in rats; [7]) was about 3 µg/mL and the “oral dose leading to teratogenicity” value (rats) was 0.3 mg/kg/day.

In the case of `CCCC(CCC)C(=O)O` [Valproic acid], the “concentration inhibiting neural crest cell migration” value [5] is listed as 10 to 100 µM and the range of tolerance [6] is listed as “up to 25 μM”.
